Experimental data: US20230286983A1 (4E Therapeutics, Inc., priority 2020, published 2023)

Legend:
MNK1 = MNK1 (Homo sapiens, UniProt Q9BUB5); experiment: MNK1 substrate phosphorylation assay; format: biochemical; conditions: recombinant human kinase
MNK2 = MNK2 (Homo sapiens, UniProt Q9HBH9); experiment: MNK2 substrate phosphorylation assay; format: biochemical; conditions: recombinant human kinase
MDCK-MDR1 = MDCK-MDR1 permeability (blood brain barrier permeability); format: in vitro ADME, Canine; conditions: 5 μM; for Papp A-B: Apical to basolateral transport; for Papp A-B / Papp B-A: average of two experiments; for Papp B-A: Basolateral to apical transport
[1] = Liver microsome stability, mouse; format: in vitro ADME; conditions: mouse liver microsomes, Table 11b; for half-life: mouse, liver microsomes, read-out: T1/2
[2] = tested on: eIF4E phosphorylation at Serine 209 in the human embryonic kidney (HEK) 293 cell line; experiment: eIF4E phosphorylation in HEK 293 cells (fluorescent plate reader); format: cell-based; conditions: eIF4E phosphorylation at Serine 209, 2 hours exposure
Procedure: The ability of MNK inhibitors described herein to inhibit eIF4E phosphorylation at Serine 209 in the human embryonic kidney (HEK) 293 cell line was tested by exposing the cells to compound for 2 hours and then measuring eIF4E phosphorylation with a phosphorylation-specific antibody in a fluorescent plate reader. These experiments were done with HEK-293 cells plated on 96 well plates. Following treatment, cells were fixed with ice cold methanol for 10 min and then washed in 1× phosphate buffered saline (PBS) and the permeabilized with 0.02% Triton X-100 in 10% normal goat serum made up in PBS. Primary antibody was applied overnight at a concentration dilution of 1:2000 (p-eIF4E antibody from Cell Signaling ab76256). Following washing, cells were then exposed to secondary antibody conjugated to alexa-fluor 488 and then visualized on a Syngergy HTX plate reader. Fluorescence for p-eIF4E was measured and normalized to total DAPI fluorescence to determine the percentage of eIF4E phosphorylation in each well. Data were plotted in Graphpad Prism V8 to determine concentration-response effects and calculate IC50 values.

P-gp (human MDR1, ABCB1) = experiment: MDCK-MDR1 permeability (blood brain barrier permeability); format: in vitro ADME, Canine; conditions: dog

MNK1, sequence (Q9BUB5 whole entry): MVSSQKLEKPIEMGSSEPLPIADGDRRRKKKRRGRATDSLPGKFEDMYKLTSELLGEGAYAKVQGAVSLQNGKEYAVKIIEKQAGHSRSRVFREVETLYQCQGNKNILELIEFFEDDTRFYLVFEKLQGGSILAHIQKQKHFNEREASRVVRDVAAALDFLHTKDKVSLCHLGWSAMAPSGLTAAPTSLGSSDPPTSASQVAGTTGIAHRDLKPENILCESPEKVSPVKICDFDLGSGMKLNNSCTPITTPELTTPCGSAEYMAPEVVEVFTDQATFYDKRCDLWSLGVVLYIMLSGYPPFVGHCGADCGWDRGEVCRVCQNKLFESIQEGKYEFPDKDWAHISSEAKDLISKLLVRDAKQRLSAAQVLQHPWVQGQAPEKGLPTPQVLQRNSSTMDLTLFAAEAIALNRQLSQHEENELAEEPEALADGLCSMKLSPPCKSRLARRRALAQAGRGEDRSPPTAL
MNK2, sequence (Q9HBH9 whole entry): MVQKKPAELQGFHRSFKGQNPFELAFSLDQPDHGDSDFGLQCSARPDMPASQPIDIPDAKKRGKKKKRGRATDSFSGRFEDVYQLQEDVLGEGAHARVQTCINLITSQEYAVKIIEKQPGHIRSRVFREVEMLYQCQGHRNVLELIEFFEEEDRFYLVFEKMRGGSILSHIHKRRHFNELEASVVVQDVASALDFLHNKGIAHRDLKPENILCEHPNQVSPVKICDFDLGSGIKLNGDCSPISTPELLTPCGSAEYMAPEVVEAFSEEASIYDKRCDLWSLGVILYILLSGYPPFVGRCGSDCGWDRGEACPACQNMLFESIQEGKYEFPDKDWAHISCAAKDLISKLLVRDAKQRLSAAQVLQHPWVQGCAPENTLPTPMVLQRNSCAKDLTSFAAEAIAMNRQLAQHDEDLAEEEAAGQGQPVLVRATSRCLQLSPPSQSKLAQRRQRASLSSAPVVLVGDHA

Row | Structure (SMILES) | IC50 (MNK1) | IC50 (MNK2) | Efflux ratio (ratio B-A/A-B) (MDCK-MDR1) | Papp A-B (MDCK-MDR1) | Papp B-A (MDCK-MDR1) | T1/2 [1] | IC50 [2] | Papp A→B at 5 μM (P-gp (human MDR1, ABCB1); MDCK-MDR1, Apical to basolateral transport, 5 μM, average of two experiments) | Papp B→A at 5 μM (P-gp (human MDR1, ABCB1); MDCK-MDR1, Basolateral to apical transport, 5 μM, average of two experiments) | half-life [1] | IC50 ([2]; Homo sapiens, HEK293, 2 h) | efflux ratio at 5 μM (P-gp (human MDR1, ABCB1); MDCK-MDR1, 5 μM, read-out: Efflux ratio (ratio B-A/A-B))
1 | Cc1cc(Nc2cc(NC(=O)C3CC3)ncn2)c(=O)n2c1C(=O)NC21C[C@H]2CNC[C@H]2C1 (single isomer, unassigned) [Compound 4ET-03-050A, N-(6-((8′-Methyl-1′,5′-dioxo-1′,2,3,3a,4,5′,6,6a-octahydro-1H,2′H-spiro[cyclopenta[c]pyrrole-5,3′-imidazo[1,5-a]pyridin]-6′-yl)amino)pyrimidin-4-yl)cyclopropanecarboxamide] | 35 nM | 1.32 nM | 12.4 | 2 ×10⁻⁶ cm/s | 24.5 ×10⁻⁶ cm/s | 1.2 h | 2.6 nM | – | – | – | – | –
2 | Cc1cc(Nc2cc(NC(=O)C3CC3)ncn2)c(=O)n2c1C(=O)NC21C[C@H]2CNC[C@H]2C1 (single isomer, unassigned) [Compound 4ET-03-050B, N-(6-((8′-Methyl-1′,5′-dioxo-1′,2,3,3a,4,5′,6,6a-octahydro-1H,2′H-spiro[cyclopenta[c]pyrrole-5,3′-imidazo[1,5-a]pyridin]-6′-yl)amino)pyrimidin-4-yl)cyclopropanecarboxamide] | 40.9 nM | 6.84 nM | 1.3 | 0.7 ×10⁻⁶ cm/s | 0.9 ×10⁻⁶ cm/s | 7.07 h | 150 nM | – | – | – | – | –
3 | Cc1cc(Nc2cc(NC(=O)C3CC3)ncn2)c(=O)n2c1C(=O)NC21Cc2ccccc2[C@@H]1F (single isomer, unassigned) [Compound 4ET-03-052A, N-(6-((1′-Fluoro-8-methyl-1,5-dioxo-1,1′,3′,5-tetrahydro-2H-spiro[imidazo[1,5-a]pyridine-3,2′-inden]-6-yl)amino)pyrimidin-4-yl)cyclopropanecarboxamide] | 4.71 nM | 0.5 nM | 6.6 | – | – | – | – | 12.1 ×10⁻⁶ cm/s | 80.6 ×10⁻⁶ cm/s | 1.83 h | 19.2 nM | –
4 | Cc1cc(Nc2cc(N)ncn2)c(=O)n2c1C(=O)NC21C[C@H]2COC[C@H]2C1 (single isomer, unassigned) [Compound 4ET-01-014A, 6′-((6-Aminopyrimidin-4-yl)amino)-8′-methyl-3a,4,6,6a-tetrahydro-1H,2′H,3H-spiro[cyclopenta[c]furan-5,3′-imidazo[1,5-a]pyridine]-1′,5′-dione] | 26 nM | 4 nM | – | 24.9 ×10⁻⁶ cm/s | 46.4 ×10⁻⁶ cm/s | – | 28.4 nM | – | – | 4.5 h | – | 1.9
5 | Cc1cc(Nc2cc(N)ncn2)c(=O)n2c1C(=O)NC21C[C@H]2COC[C@H]2C1 (single isomer, unassigned) [Compound 4ET-01-014B, 6′-((6-Aminopyrimidin-4-yl)amino)-8′-methyl-3a,4,6,6a-tetrahydro-1H,2′H,3H-spiro[cyclopenta[c]furan-5,3′-imidazo[1,5-a]pyridine]-1′,5′-dione] | 24.5 nM | 4.6 nM | 2.4 | 2.4 ×10⁻⁶ cm/s | 5.8 ×10⁻⁶ cm/s | 7.17 h | 67.4 nM | – | – | – | – | –
